In brackets after ≈: the same amount, converted by molar mass. Read-outs that look alike come from different tables or passages of the source.
How the values were obtained:
Alternaria solani = experiment: Fungicidal activity, fungi growth rate method, AS; format: cell-based; details: Alternaria solani; 50 μg/mL; read-out: Fungicidal activity, inhibition, AS
Pellicularia sasakii = experiment: Fungicidal activity, fungi growth rate method, PS; format: cell-based; details: 50 μg/mL; read-out: Fungicidal activity, inhibition, PS
Sclerotinia sclerotiorum = experiment: microbe, parasite or virus in culture; format: cell-based; details: Sclerotinia sclerotiorum; for EC90: read-out: EC90 against S. sclerotiorum in vitro; for inhibition at 50 µg/mL: 50 μg/mL
Botrytis cinerea = experiment: Fungicidal activity, fungi growth rate method, BC; format: cell-based; details: Botrytis cinerea; 50 μg/mL; read-out: Fungicidal activity, inhibition, BC
[1] = tested on: Phytophthora infestans (Mont) de Bary; experiment: microbe, parasite or virus in culture; format: cell-based; details: Phytophthora infestans
[2] = tested on: tobacco mosaic virus (TMV); experiment: Anti-TMV protective activity (protection mode), live friction inoculation on tobacco seedlings; format: in vivo; details: Tobacco mosaic virus, read-out: Anti-TMV activity, Protection effect (inhibition)
[3] = tested on: tobacco mosaic virus (TMV); experiment: Anti-TMV curative activity (treatment mode), live friction inoculation on tobacco seedlings; format: in vivo; details: Tobacco mosaic virus, read-out: Anti-TMV activity, Curative effect (inhibition), 100 μg/mL, tobacco seedlings, checked on seventh day
Cercospora arachidicola = experiment: Fungicidal activity, fungi growth rate method, CA; format: cell-based; details: Mycosphaerella arachidis, 50 μg/mL
[4] = tested on: tobacco mosaic virus (TMV); experiment: Anti-TMV inactivation activity (inactivation mode), compound mixed with TMV before inoculation of tobacco leaves; format: in vivo; details: Tobacco mosaic virus, read-out: Anti-TMV activity, Inactivation effect (inhibition)
wheat Gibberella zeae = experiment: microbe, parasite or virus in culture; format: cell-based; details: Fusarium graminearum, read-out: Fungicidal activity, inhibition, GZ
Rhizoctonia cerealis = experiment: Fungicidal activity, fungi growth rate method, RC; format: cell-based; details: Ceratobasidium cereale; 50 μg/mL; read-out: Fungicidal activity, inhibition, RC
Physalospora piricola = experiment: Fungicidal activity, fungi growth rate method, PP; format: cell-based; details: 50 μg/mL; read-out: Fungicidal activity, inhibition, PP
[5] = tested on: tobacco mosaic virus (TMV); experiment: Anti-TMV inducing activity (induction mode), tobacco seedlings; format: in vivo; details: Tobacco mosaic virus, read-out: Anti-TMV activity, Induction effect (inhibition), 100 μg/mL, tobacco seedlings
[6] = read-out: Fungicidal activity (inhibition) against SS: Sclerotinia sclerotiorum
[7] = read-out: Fungicidal activity, inhibition, SS
[8] = read-out: Fungicidal activity, inhibition, PI
[9] = read-out: Fungicidal activity, inhibition, CA

| SMILES | inhibition at 50 µg/mL (Alternaria solani) [%] | melting point [°C] | inhibition at 50 µg/mL (Pellicularia sasakii) [%] | EC90 (Sclerotinia sclerotiorum) [µg/mL] | inhibition at 50 µg/mL (Sclerotinia sclerotiorum; [6]) [%] | inhibition at 50 µg/mL (Sclerotinia sclerotiorum; [7]) [%] | inhibition at 50 µg/mL (Botrytis cinerea) [%] | inhibition at 50 µg/mL [1, 8] [%] | inhibition at 100 µg/mL [2] [%] | inhibition at 100 µg/mL [3] [%] | inhibition at 50 µg/mL (Cercospora arachidicola; [9]) [%] | inhibition at 100 µg/mL [4] [%] | inhibition at 50 µg/mL (wheat Gibberella zeae) [%] | inhibition at 50 µg/mL (Rhizoctonia cerealis) [%] | inhibition at 50 µg/mL (Physalospora piricola) [%] | inhibition at 100 µg/mL [5] [%] | inhibition at 50 µg/mL ([1]; read-out: Fungicidal activity (inhibition) against PI: Phytophthora infestans (Mont) de Bary) [%] | inhibition at 50 µg/mL (Cercospora arachidicola; read-out: Fungicidal activity (inhibition) against CA: Cercospora arachidicola) [%] |
| --- | --- | --- | --- | --- | --- | --- | --- | --- | --- | --- | --- | --- | --- | --- | --- | --- | --- | --- |
| O=C(N/C(=C\c1ccccc1)C(=O)N1CCC(O)(c2ccc(Br)cc2)CC1)c1ccc(C(F)(F)F)cc1 [Compound 9, (Z)-N-[1-[[4-(4-bromophenyl)-4-hydroxy-1-piperidinyl]carbonyl]-2-phenylethenyl]-4-(trifluoromethyl)benzamide] | 15 | 130 to 131 | 17 | 273 (≈ 477 µM) | 100 | 100 | 13 | 18 | 60 | 50 | 14 | 15 | 0 | 11 | 7 | 10 |  |  |
| O=C(N/C(=C\c1ccccc1)C(=O)N1CCC(O)(c2ccc(Br)cc2)CC1)c1ccc([N+](=O)[O-])cc1 [Compound 10, (Z)-N-[1-[[4-(4-bromophenyl)-4-hydroxy-1-piperidinyl]carbonyl]-2-phenylethenyl]-4-nitrobenzamide] | 8 | 130 to 132 | 17 |  | 80 to 95 | 86 | 11 | 18 | 13 | 39 | 9 | 62 | 17 | 16 | 7 | 48 |  |  |
| O=C(N/C(=C\c1ccccc1)C(=O)N1CCC(O)(c2ccc(Br)cc2)CC1)c1cccc([N+](=O)[O-])c1 [Compound 11, (Z)-N-[1-[[4-(4-bromophenyl)-4-hydroxy-1-piperidinyl]carbonyl]-2-phenylethenyl]-3-nitrobenzamide] | 24 | 128 to 129 | 8 | 127 (≈ 232 µM) | 100 | 100 | 12 | 14 | 5 | 78 | 25 | 71 | 34 | 24 | 21 | 33 |  |  |
| O=C(N/C(=C\c1ccccc1)C(=O)N1CCC(O)(c2ccc(Br)cc2)CC1)c1ccccc1[N+](=O)[O-] [Compound 12, (Z)-N-[1-[[4-(4-bromophenyl)-4-hydroxy-1-piperidinyl]carbonyl]-2-phenylethenyl]-2-nitrobenzamide] | 12 | 122 to 124 | 17 | 192 (≈ 348 µM) | 100 | 100 | 8 | 10 | 23 | 56 | 16 | 28 | 39 | 14 | 17 | 0 |  |  |
| O=C(N/C(=C\c1ccccc1)C(=O)N1CCC(O)(c2ccc(Br)cc2)CC1)c1ccco1 [Compound 13, (Z)-N-[1-[[4-(4-bromophenyl)-4-hydroxy-1-piperidinyl]carbonyl]-2-phenylethenyl]-2-furamide] | 15 | 138 to 140 | 21 | 195 (≈ 394 µM) |  | 95 | 24 | 27 | 26 | 47 | 16 | 69 | 33 | 22 | 16 | 30 |  |  |
| O=C(N/C(=C\c1ccccc1)C(=O)N1CCC(O)(c2ccc(Br)cc2)CC1)c1cccs1 [Compound 14, (Z)-N-[1-[[4-(4-bromophenyl)-4-hydroxy-1-piperidinyl]carbonyl]-2-phenylethenyl]-2-thiophenecarboxamide] | 17 | 134 to 136 | 3 |  | 80 to 95 | 83 | 24 | 5 | 34 | 39 | 7 | 30 | 7 | 8 | 0 | 52 |  |  |
| Cc1ccc(/C=C(\NC(=O)c2ccccc2)C(=O)N2CCC(O)(c3ccc(Br)cc3)CC2)cc1 [Compound 15, (Z)-N-[1-[[4-(4-bromophenyl)-4-hydroxy-1-piperidinyl]carbonyl]-2-(4-metylphenyl)ethenyl]benzamide] | 17 | 234 to 236 | 12 |  |  | 56 | 10 | 21 | 0 | 20 | 13 | 0 | 10 | 16 | 7 | 41 |  |  |
| COc1ccc(/C=C(\NC(=O)c2ccccc2)C(=O)N2CCC(O)(c3ccc(Br)cc3)CC2)cc1 [Compound 16, (Z)-N-[1-[[4-(4-bromophenyl)-4-hydroxy-1-piperidinyl]carbonyl]-2-(4-methoxyphenyl)ethenyl]benzamide] | 23 | 208 to 210 | 15 |  |  | 67 | 29 | 33 | 57 | 0 | 55 | 1 | 2 | 13 | 5 | 8 | 33 | 55 |
| O=C(N/C(=C\c1ccc(F)cc1)C(=O)N1CCC(O)(c2ccc(Br)cc2)CC1)c1ccccc1 [Compound 17, (Z)-N-[1-[[4-(4-bromophenyl)-4-hydroxy-1-piperidinyl]carbonyl]-2-(4-fluorophenyl)ethenyl]-benzamide] | 28 | 266 to 268 | 15 |  |  | 67 | 10 | 27 | 33 | 0 | 23 | 1 | 16 | 10 | 3 | 3 |  |  |
